How the values were obtained:
rat CKIδ = target: T1, rat CKIδ (Rattus norvegicus, UniProt Q06486); assay: Casein kinase assay, recombinant rat CKIδ control enzyme; format: biochemical; conditions: read-out: IC50 against rodent CKIδ
T1 construct: purchased New England Biolabs
T1 sequence (Q06486 1-317 limits assumed): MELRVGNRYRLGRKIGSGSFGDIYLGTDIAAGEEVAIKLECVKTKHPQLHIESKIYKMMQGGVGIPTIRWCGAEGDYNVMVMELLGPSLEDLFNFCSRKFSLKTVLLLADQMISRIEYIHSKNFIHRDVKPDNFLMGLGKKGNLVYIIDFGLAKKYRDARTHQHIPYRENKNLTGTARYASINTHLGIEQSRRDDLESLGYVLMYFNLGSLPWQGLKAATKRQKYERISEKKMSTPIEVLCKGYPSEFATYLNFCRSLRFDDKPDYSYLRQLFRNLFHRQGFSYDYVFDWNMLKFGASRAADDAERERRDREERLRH
Description: (§1) Protein kinase assays—Casein kinase activity was assayed essentially as described (Donald, R. G. K. et al., 2002, supra) using 96-well phosphocellulose plates (MAPH-NOB, Millipore; Billerica, Mass.) to capture ^33P-phosphorylated peptide or casein substrates. Kinase reactions were carried out in 40 μl volumes containing 25 mM Hepes, pH 7.4, 10 mM MgCl2, 20 mM β-glycerophosphate, 1 mM DTT, 250 μM substrate, 1 mg/mL BSA, 2 μM ATP, and 0.01 μM [γ-^33P]ATP (Perkin-Elmer, 3000 Ci/mmol). The reactions were initiated by the addition of enzyme and incubated at room temperature for 60 min. Casein (5% solution), partially dephosphorylated α-casein and β-casein were obtained from Sigma.
Preparations of FLAGTgCKIα and FLAGTgCKIβ were purified further on a SMART system FPLC 0.1 mL MonoQ anion exchange column (Pharmacia; New York, N.Y.) equilibrated in buffer A (50 mM Hepes, pH 7.4, 10% glycerol, 1 mM DTT) at room temperature. Samples of FLAG-affinity purified enzyme (10-100 μg) were syringe-passed through a 0.22 μm (pore-size) filter before loading on the column. A linear salt gradient was applied (0-500 mM in 3 mL at 100 μl/min) and 100 μl fractions were collected and analyzed by SDS-PAGE and for CKI activity. Fractions with peak activity were retained for further analysis. The degree of purity of the partially purified FLAGTgCKIα was estimated by densitometry of silver stained SDS-PAGE gels. […]

TgCKIα = TgCKIα (Toxoplasma gondii, UniProt Q6QNM1); assay: Casein kinase assay, TgCKIα (recombinant FLAGTgCKIα or partially purified native); format: biochemical; design: other: recombinant or native forms of TgCKIα
Description: as §1, with “The reactions were initiated by the addition of enzyme and incubated at room temperature for 60 min.” left out
(§2) A variety of commercially available peptide substrates were evaluated. From Calbiochem (San Diego, Calif.): CKI substrate (RRKDLHDDEEDEAMSITA; SEQ ID NO:13); CKII substrate (RRADDSDDDDD; SEQ ID NO:14); Syntide-2 substrate (PLARTLSVAGLPGKK; SEQ ID NO:15); CaM kinase II substrate (281-291) (MHKNETVECLK; SEQ ID NO:16). From Promega: CKI substrate (DDDEESITRR; SEQ ID NO:17) and kemptide (LRRASLG; SEQ ID NO:18). From New England Biolabs (Beverly, Mass.): CKI phosphopeptide substrate (KRRRALS(p)VASLPGL; SEQ ID NO:19), and CKII substrate (RRREEETEEE; SEQ ID NO:20). PKG assays were performed with kemptide as substrate and 10 μM cGMP. CDPK was assayed with Syntide-2 substrate and in the presence of 100 μM CaCl2.
(§3) Purification of recombinant CKI enzymes—E. coli strain BL21 Origami™ (Novagen) was transformed with FLAGTgCKIα and FLAGTgCKIβ expression vectors, and colonies were expanded into 250 mL LB cultures grown at 37° C. […] Protein was measured with a micro-BCA reagent (Pierce) following a TCA-sodium deoxycholate step to remove residual FLAG peptide (Brown et al., 1989, Anal. Biochem. 180:136-139). […]
Preparations of FLAGTgCKIα and FLAGTgCKIβ were purified further on a SMART system FPLC 0.1 mL MonoQ anion exchange column (Pharmacia; New York, N.Y.) equilibrated in buffer A (50 mM Hepes, pH 7.4, 10% glycerol, 1 mM DTT) at room temperature. […] A linear salt gradient was applied (0-500 mM in 3 mL at 100 μl/min) and 100 μl fractions were collected and analyzed by SDS-PAGE and for CKI activity. […]

TgCKIβ = TgCKIβ (Toxoplasma gondii, UniProt Q6QNM0); assay: Casein kinase assay, recombinant FLAGTgCKIβ; format: biochemical; conditions: recombinant enzyme; read-out: IC50 against TgCKIβ
Description: as §1, with “The reactions were initiated by the addition of enzyme and incubated at room temperature for 60 min.” left out
as §2
Purification of recombinant CKI enzymes—E. coli strain BL21 Origami™ (Novagen) was transformed with FLAGTgCKIα and FLAGTgCKIβ expression vectors, and colonies were expanded into 250 mL LB cultures grown at 37° C. Expression was induced with 1 mM IPTG once cultures had reached an OD600nm of 0.3-0.5, and the transformed bacteria were harvested 4-6 hours later. Cell pellets were resuspended in 15 mL of lysis buffer containing protease inhibitors and lysates prepared as described by the supplier (Bugbuster™ reagents, Novagen). The concentration of NaCl in the lysate was adjusted to 0.5 M, and 0.5 mL of FLAG-agarose beads were added (Sigma). The mixture was allowed to rock in a Nutator mixer (Becton-Dickinson; San Jose, Calif.) for 2 hours at 4° C. The slurry was then poured into an empty column and the matrix washed with 50 mL of wash buffer (50 mM Tris-HCl, pH 7.4, 0.5M NaCl, 10% glycerol, 1 mM DTT, 1 mM EDTA). Enzyme was eluted with 5 mL of 0.4 mg/mL FLAG peptide (Sigma) in NaCl-free wash buffer and concentrated with a centrifuge filtration unit (Amicon Ultra®, 10 kDa cut-off, Millipore). Protein was measured with a micro-BCA reagent (Pierce) following a TCA-sodium deoxycholate step to remove residual FLAG peptide (Brown et al., 1989, Anal. Biochem. 180:136-139). Using this procedure, and SDS-PAGE analysis, the yield of FLAGTgCKIβ was estimated as ˜200 μg of enzyme with >90% purity. Purification of FLAGTgCKIα was much less efficient with only about 1 μg of ˜10% pure enzyme obtained per 250 mL bacterial culture.
Preparations of FLAGTgCKIα and FLAGTgCKIβ were purified further on a SMART system FPLC 0.1 mL MonoQ anion exchange column (Pharmacia; New York, N.Y.) equilibrated in buffer A (50 mM Hepes, pH 7.4, 10% glycerol, 1 mM DTT) at room temperature. Samples of FLAG-affinity purified enzyme (10-100 μg) were syringe-passed through a 0.22 μm (pore-size) filter before loading on the column. A linear salt gradient was applied (0-500 mM in 3 mL at 100 μl/min) and 100 μl fractions were collected and analyzed by SDS-PAGE and for CKI activity. Fractions with peak activity were retained for further analysis. The degree of purity of the partially purified FLAGTgCKIα was estimated by densitometry of silver stained SDS-PAGE gels. A recombinant rat CKIδ enzyme used for control purposes was obtained from New England Biolabs.

T. gondii tachyzoites = assay: [3H]-uracil uptake assay of parasite growth inhibition in infected HFF cell monolayers; format: cell-based, Toxoplasma gondii
Source text: Host cells and parasite cultures—RH strain or RH ΔHXGPRT strain tachyzoites of T. gondii were maintained by serial passage in confluent monolayers of human foreskin fibroblasts (“HFF”) as described (Roos, D. S. et al., 1994, Methods Cell Biol. 45:27-63). A modified [^3H]-uracil uptake assay (Pfefferkorn, E. R. and Pfefferkorn, L. C., 1977, J. Protozool. 24:449-453) adapted for use in 96-well scintillation plates (Cytostar-T, Amersham; Piscataway, N.J.) was used to measure parasite growth inhibition. Each well, previously seeded with HFF cells, was inoculated with T. gondii tachyzoites (2×10^4) in 200 μl of growth media containing 2 μCi [5,6]-^3H-uracil (Perkin-Elmer NEN; Boston, Mass.) and serially diluted compound. Following incubation at 37° C. for 36-48 hours, tritium-incorporation into host cell monolayers was directly counted in a microplate scintillation counter (MicroBeta, PerkinElmer-Wallac).

mammalian CDK1 = mammalian CDK1 (Homo sapiens, UniProt P06493); conditions: Knockaert et al., 2002; cited from earlier work
[1] = system: T. gondii PKG, CKIα and -β, and CDPK1; native E. tenella CKIα; assay: Protein kinase assays, the parasite kinases tested (Table 2 panel); format: biochemical
Description: as §1, §2

mammalian CDK5 = mammalian CDK5 (Homo sapiens, UniProt Q00535); conditions: Knockaert et al., 2002; cited from earlier work
[2] = system: CC(C)C[C@H](NC(=O)CNC(=O)[C@@H]1CCCN1C(=O)[C@H](CC(C)C)NC(=O)[C@H](CO)NC(=O)[C@H](C)NC(=O)[C@@H](NC(=O)[C@H](COP(=O)(O)O)NC(=O)[C@H](CC(C)C)NC(=O)[C@H](C)NC(=O)[C@H](CCCNC(=N)N)NC(=O)[C@H](CCCNC(=N)N)NC(=O)[C@H](CCCNC(=N)N)NC(=O)[C@@H](N)CCCCN)C(C)C)C(=O)O; assay: Casein kinase assay, TgCKIα (recombinant FLAGTgCKIα or partially purified native); format: biochemical; conditions: other: substrate titration, 2 μM ATP; pH 7.4; 37.0 °C
Description: as §1, with “The reactions were initiated by the addition of enzyme and incubated at room temperature for 60 min.” left out
(§4) A variety of commercially available peptide substrates were evaluated. From Calbiochem (San Diego, Calif.): CKI substrate (RRKDLHDDEEDEAMSITA; SEQ ID NO:13); CKII substrate (RRADDSDDDDD; SEQ ID NO:14); Syntide-2 substrate (PLARTLSVAGLPGKK; SEQ ID NO:15); CaM kinase II substrate (281-291) (MHKNETVECLK; SEQ ID NO:16). From Promega: CKI substrate (DDDEESITRR; SEQ ID NO:17) and kemptide (LRRASLG; SEQ ID NO:18). […]
as §3

[3] = substrate: CC(C)C[C@H](NC(=O)CNC(=O)[C@@H]1CCCN1C(=O)[C@H](CC(C)C)NC(=O)[C@H](CO)NC(=O)[C@H](C)NC(=O)[C@@H](NC(=O)[C@H](COP(=O)(O)O)NC(=O)[C@H](CC(C)C)NC(=O)[C@H](C)NC(=O)[C@H](CCCNC(=N)N)NC(=O)[C@H](CCCNC(=N)N)NC(=O)[C@H](CCCNC(=N)N)NC(=O)[C@@H](N)CCCCN)C(C)C)C(=O)O; assay: Casein kinase assay, recombinant FLAGTgCKIβ; format: biochemical; conditions: other: substrate titration, 2 μM ATP; pH 7.4; 37.0 °C
Description: as §1, with “The reactions were initiated by the addition of enzyme and incubated at room temperature for 60 min.” left out
as §4, §3

Sequence of mammalian CDK5 (Q00535 whole entry): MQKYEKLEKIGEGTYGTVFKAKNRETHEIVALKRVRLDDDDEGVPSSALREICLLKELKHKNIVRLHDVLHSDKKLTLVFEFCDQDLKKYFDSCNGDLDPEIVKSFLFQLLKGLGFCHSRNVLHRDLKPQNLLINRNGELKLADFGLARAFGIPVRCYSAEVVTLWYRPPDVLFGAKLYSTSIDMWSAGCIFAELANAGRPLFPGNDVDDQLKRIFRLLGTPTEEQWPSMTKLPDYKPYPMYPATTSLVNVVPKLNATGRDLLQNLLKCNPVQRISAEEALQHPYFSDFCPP
Sequence of mammalian CDK5 (Q15078 99-307 partner limits assumed): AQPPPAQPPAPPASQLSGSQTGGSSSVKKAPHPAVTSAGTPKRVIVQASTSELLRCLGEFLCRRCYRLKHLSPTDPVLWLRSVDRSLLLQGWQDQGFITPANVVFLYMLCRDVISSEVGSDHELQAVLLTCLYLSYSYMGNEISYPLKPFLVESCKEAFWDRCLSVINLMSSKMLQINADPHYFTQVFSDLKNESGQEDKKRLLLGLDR
Sequence of TgCKIα (Q6QNM1 whole entry, looked up): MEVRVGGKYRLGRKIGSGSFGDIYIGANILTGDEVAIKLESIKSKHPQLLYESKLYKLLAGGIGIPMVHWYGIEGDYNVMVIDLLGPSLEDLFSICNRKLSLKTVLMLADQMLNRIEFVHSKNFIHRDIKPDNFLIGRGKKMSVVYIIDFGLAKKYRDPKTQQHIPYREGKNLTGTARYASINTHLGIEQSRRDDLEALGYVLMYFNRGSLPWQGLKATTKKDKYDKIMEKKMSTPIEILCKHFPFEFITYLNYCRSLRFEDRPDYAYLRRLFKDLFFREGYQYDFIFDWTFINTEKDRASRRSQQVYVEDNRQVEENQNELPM
Sequence of mammalian CDK1 (P06493 whole entry): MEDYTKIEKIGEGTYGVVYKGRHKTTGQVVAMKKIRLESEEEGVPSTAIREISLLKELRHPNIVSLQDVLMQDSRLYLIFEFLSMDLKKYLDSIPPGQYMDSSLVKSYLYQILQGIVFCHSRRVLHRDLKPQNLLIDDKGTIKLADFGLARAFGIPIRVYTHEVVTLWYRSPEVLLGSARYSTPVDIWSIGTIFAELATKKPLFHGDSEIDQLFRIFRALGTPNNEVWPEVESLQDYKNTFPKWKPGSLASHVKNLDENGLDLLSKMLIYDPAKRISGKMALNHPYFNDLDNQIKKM
Sequence of mammalian CDK1 (P14635 whole entry partner): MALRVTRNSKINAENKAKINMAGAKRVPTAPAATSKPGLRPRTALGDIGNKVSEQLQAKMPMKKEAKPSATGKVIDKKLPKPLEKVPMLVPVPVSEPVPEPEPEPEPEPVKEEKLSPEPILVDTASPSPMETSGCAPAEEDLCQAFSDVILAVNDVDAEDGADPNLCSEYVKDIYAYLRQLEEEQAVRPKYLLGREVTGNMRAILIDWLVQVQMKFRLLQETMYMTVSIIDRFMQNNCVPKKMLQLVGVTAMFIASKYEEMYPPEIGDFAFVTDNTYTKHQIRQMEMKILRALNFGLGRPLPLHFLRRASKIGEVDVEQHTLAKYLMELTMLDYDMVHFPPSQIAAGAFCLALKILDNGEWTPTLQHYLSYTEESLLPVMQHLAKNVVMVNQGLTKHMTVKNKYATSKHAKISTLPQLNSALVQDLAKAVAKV

NC1=NC(=O)/C(=C2\CCNC(=O)c3[nH]c(Br)cc32)N1 [Hymenialdisine]
IC50 (rat CKIδ): 60 nM
IC50 (TgCKIα): 7 to 10 nM
IC50 (TgCKIβ): 7 to 10 nM

O=C1Cc2c([nH]c3ccc([N+](=O)[O-])cc23)-c2ccccc2N1 [alsterpaullone]
IC50 (T. gondii tachyzoites; Toxoplasma gondii, infected HFF cell monolayers, read-out: IC50, antiparasitic activity in the whole cell assay): 1200 nM
potency against mammalian CDK1 relative to kenpaullone (mammalian CDK1): at least 10 fold
activity against the parasite kinases tested [1]: Neither kenpaullone nor alsterpaullone showed any activity
potency against mammalian CDK5 relative to kenpaullone (mammalian CDK5): at least 10 fold

O=C1Cc2c([nH]c3ccc(Br)cc23)-c2ccccc2N1 [kenpaullone]
activity against cultured T. gondii parasites (T. gondii tachyzoites; uracil uptake / whole cell assay): inactive
activity against the parasite kinases tested [1]: Neither kenpaullone nor alsterpaullone showed any activity

TgCKIα (Toxoplasma gondii)
Vmax [2]: 26 nmol/min/mg

B1: TgCKIβ (Toxoplasma gondii) (protein)
chain: MAHHQDTRNHTGVGPSSSIPLKDLKIAGVWKIGRKIGSGSFGDIYKGLNSQTGQEVALKVESTKAKHPQLLYEYKLLKHLQGGTGIAQVFCCETAGDHNIMAMELLGPSLEDVFNLCNRTFSLKTILLLADQFLQRVEYIHSKNFIHRDIKPDNFLLGGAGNQNTIYVIDFGLAKKFRDPKTHQHIPYRENKNLTGTARYASISAHLGSEQSRRDDLEAVGYVLMYFCRGGTLPWQGIKANTKQEKYHKIMEKKMSTPVEVLCKGYPSEFATYLHYCRSLRFEDRPDYAYLKRLFRDLYIKEGYDDSDREFDWTVKLSSRSLGPPSSRAQHVLLSQDTRTRGKRETDRPVAARSGDRERGIHFSNGNVGNPSMATNPGGLSVMVHERTSLVDQGDRGSRETSTRKEDAKDGRWPGGRFSCLPLLCRRSPTKA
Km [3]: 79 µM
Vmax [3]: 37 nmol/min/mg

From US7671181B2, “Polynucleotides encoding coccidian parasite casein kinase I, a chemotherapeutic target for antiprotozoal agents” (Merck Sharp & Dohme Corp., priority 2004, dated 2010)
